In ChEMBL document CHEMBL1201862, “PubChem BioAssay data set” (2004):
Activity calls are given as the source filed them.

Experiments:
[1] = molecular target: Beta-galactosidase (Escherichia coli, UniProt Q8VNN2); test: PubChem AID 485352; assay type: functional
[2] = molecular target: Type-1 angiotensin II receptor (Homo sapiens, UniProt P30556); test: AT1 receptor antagonists, dose response, selectivity assay for APJ receptor antagonist project, cell-based, uHTS hits (AID 463214); assay type: functional;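 also: antagonist potency against angiotensin II stimulated AT1 response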
Type-1 angiotensin II receptor, sequence (P30556 whole entry): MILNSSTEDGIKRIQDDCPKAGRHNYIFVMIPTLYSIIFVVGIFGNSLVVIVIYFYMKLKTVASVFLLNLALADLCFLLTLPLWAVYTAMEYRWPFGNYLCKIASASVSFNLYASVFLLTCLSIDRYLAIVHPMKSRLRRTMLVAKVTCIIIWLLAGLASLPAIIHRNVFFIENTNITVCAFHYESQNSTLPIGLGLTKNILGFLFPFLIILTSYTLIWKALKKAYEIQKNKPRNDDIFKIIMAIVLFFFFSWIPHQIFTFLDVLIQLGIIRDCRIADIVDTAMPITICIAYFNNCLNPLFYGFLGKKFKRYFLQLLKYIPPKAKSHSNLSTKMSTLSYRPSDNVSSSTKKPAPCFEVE

[3] = molecular target: Mitochondrial peptide methionine sulfoxide reductase (Bos taurus, UniProt P54149); test: Absorbance-based biochemical high throughput dose response assay for activators of Methionine sulfoxide reductase A (MsrA).; assay type: functional
Mitochondrial peptide methionine sulfoxide reductase, sequence (P54149 whole entry): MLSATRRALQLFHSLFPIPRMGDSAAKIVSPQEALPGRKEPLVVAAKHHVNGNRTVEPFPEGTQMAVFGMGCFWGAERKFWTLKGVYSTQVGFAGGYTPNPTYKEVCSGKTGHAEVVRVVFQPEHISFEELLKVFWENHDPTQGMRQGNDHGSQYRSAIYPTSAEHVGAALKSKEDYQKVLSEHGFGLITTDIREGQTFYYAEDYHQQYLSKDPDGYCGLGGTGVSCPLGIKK

[4] = molecular target: Phospholipase D1 (Homo sapiens, UniProt Q13393); test: PLD1 inhibitor potency in cells, dose response (AID 602151); assay type: functional;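 also: cellular PLD1 assay in Calu-1 cells stimulated with PMA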
Phospholipase D1, sequence (Q13393 whole entry): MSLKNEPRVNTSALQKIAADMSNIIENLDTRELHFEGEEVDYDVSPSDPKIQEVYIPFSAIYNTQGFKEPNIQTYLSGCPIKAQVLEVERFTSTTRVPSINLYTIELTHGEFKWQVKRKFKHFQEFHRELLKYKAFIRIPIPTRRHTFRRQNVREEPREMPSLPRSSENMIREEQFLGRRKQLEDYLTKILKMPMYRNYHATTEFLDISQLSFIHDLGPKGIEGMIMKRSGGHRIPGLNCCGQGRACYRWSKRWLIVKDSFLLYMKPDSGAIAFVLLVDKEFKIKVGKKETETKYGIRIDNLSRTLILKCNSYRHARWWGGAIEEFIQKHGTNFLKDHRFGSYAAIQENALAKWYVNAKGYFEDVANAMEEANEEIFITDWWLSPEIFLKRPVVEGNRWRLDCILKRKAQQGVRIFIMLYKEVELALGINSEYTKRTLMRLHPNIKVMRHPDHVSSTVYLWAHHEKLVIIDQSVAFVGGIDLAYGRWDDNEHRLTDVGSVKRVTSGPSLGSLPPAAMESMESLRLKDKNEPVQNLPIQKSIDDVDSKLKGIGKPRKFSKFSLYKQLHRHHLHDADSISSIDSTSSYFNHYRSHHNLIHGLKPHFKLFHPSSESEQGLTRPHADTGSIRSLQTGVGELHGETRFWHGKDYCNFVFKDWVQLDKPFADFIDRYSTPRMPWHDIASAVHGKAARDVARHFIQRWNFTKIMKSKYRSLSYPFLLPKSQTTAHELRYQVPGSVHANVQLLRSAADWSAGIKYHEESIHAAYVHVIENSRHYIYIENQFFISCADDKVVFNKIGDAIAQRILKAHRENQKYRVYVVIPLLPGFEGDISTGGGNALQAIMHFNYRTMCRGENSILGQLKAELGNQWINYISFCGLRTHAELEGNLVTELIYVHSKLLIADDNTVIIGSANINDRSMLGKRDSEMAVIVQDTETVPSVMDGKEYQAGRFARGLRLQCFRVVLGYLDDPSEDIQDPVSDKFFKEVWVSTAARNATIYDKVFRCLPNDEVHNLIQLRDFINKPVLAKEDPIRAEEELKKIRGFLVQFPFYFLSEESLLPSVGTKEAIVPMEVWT

[5] = molecular target: Phospholipase D2 (Homo sapiens, UniProt O14939); test: PLD2 inhibitor potency in cells, dose response (AID 602147); assay type: functional;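 also: cellular assay in HEK293 cells overexpressing GFP-tagged PLD2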
[6] = molecular target: Intestinal-type alkaline phosphatase (Mus musculus, UniProt P24822); test: PubChem AID 488874; assay type: functional
Intestinal-type alkaline phosphatase (Mus musculus, UniProt P24822), sequence (P24822 whole entry): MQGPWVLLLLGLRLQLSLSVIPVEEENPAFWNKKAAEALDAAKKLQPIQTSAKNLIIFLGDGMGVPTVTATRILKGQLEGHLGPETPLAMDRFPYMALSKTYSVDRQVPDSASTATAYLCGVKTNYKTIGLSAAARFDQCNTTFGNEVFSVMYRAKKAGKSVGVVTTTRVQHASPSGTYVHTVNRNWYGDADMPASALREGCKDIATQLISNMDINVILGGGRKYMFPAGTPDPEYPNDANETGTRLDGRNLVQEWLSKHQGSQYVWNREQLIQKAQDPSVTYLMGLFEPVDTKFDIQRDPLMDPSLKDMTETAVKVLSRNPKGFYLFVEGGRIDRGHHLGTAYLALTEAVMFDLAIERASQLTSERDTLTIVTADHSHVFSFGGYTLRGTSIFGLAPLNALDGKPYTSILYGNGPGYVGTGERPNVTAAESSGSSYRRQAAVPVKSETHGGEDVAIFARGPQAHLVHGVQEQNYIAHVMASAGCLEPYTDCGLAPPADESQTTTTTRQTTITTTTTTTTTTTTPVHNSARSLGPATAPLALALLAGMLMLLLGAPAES

[7] = molecular target: T1, Intestinal-type alkaline phosphatase (Homo sapiens, UniProt P09923); test: human IAP inhibitors, dose response, biochemical, luminescent, uHTS hits, set 2 (AID 488793); assay type: functional
T1 sequence (P09923 whole entry): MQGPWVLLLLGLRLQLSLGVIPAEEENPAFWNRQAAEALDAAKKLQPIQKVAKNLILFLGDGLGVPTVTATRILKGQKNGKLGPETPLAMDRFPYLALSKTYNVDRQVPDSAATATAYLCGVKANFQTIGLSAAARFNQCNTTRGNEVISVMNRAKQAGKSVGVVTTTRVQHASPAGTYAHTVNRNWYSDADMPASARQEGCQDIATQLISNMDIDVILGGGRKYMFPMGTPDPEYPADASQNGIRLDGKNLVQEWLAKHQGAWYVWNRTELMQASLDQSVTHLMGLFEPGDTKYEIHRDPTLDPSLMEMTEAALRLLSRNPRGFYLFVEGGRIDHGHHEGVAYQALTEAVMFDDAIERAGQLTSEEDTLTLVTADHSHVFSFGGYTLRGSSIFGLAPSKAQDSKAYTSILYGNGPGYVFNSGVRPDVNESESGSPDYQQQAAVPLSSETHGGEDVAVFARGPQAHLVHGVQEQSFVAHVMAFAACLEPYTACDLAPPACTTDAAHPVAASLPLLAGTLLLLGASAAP

[8] = molecular target: T1, Intestinal-type alkaline phosphatase; test: Dose Response confirmation of uHTS hits from a small molecule inhibitors of human intestinal alkaline phosphatase via a luminescent assay. [Related pubchem assays (depositor defined):AID2544, AID2574]; assay type: functional
[9] = molecular target: T2, Alkaline phosphatase, tissue-nonspecific isozyme (Homo sapiens, UniProt P05186); test: inhibition of tissue-nonspecific alkaline phosphatase – biochemical, dose response (AID 488882); assay type: functional
T2 sequence (P05186 whole entry): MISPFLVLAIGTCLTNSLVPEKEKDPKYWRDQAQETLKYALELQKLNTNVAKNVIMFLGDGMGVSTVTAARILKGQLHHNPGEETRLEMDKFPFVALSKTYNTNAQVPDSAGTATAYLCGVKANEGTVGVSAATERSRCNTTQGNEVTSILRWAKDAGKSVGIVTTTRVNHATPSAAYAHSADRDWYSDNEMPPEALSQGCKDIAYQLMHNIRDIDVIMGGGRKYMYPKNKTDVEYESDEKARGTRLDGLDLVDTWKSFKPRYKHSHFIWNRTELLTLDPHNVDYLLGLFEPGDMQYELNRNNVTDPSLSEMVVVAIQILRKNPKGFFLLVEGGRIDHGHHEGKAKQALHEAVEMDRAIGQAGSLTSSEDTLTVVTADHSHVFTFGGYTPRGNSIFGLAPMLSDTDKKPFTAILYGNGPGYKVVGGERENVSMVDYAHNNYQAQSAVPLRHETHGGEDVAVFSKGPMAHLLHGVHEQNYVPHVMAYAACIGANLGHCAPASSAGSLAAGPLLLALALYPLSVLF

[10] = system: HEK293; test: cells; assay type: functional, cell-based; conditions: Homo sapiens
[11] = molecular target: Nuclear receptor subfamily 0 group B member 1 (Homo sapiens, UniProt P51843); test: Luminescence-based cell-based high throughput dose response assay for inhibitors of the orphan nuclear receptor subfamily 0, group B, member 1 (DAX1; NR0B1). [Related pubchem assays (depositor defined):AID504766, AID504790]; assay type: functional
Nuclear receptor subfamily 0 group B member 1, sequence (P51843 whole entry): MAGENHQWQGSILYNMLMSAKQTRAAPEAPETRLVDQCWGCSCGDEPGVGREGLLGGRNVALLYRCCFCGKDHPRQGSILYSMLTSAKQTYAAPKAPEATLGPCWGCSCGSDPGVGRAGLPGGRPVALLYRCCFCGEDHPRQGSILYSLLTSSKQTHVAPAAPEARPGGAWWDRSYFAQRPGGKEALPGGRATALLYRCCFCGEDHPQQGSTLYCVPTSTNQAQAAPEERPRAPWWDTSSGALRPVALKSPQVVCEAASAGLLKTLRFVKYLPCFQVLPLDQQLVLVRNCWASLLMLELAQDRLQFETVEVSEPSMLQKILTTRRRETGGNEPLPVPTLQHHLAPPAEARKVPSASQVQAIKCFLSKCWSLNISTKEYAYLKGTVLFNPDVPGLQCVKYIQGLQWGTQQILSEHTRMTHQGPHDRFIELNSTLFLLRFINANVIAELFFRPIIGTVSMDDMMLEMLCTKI

[12] = HeLa cell cytotoxicity, dose response, cytotoxicity control for MgcRacGAP inhibitor project (AID 624300); assay type: functional
[13] = molecular target: T3, Rac GTPase-activating protein 1 (Homo sapiens, UniProt Q9H0H5); test: MgcRacGAP GTPase-activating activity inhibitors, confirmation, biochemical, ADP Hunter fluorescence, primary and confirmatory (AID 624330); assay type: functional
T3 sequence (Q9H0H5 whole entry): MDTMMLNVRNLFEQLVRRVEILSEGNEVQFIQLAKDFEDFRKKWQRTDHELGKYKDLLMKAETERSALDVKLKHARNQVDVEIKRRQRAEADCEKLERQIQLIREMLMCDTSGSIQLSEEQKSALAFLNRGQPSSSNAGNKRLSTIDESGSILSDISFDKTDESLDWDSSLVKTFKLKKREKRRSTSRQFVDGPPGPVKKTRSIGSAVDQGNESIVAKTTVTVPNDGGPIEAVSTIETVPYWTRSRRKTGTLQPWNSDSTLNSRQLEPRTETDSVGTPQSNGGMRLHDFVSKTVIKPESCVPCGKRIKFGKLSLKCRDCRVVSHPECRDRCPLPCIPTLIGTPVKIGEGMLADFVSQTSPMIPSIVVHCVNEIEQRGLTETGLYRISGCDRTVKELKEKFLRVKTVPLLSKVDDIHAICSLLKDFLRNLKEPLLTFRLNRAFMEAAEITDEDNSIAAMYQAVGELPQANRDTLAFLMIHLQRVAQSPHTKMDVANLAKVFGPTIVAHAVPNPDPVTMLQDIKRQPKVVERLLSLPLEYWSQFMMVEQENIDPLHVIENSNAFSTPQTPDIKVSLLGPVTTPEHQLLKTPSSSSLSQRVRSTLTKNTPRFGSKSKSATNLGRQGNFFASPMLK

[14] = molecular target: Neuropeptide Y receptor type 2 (Homo sapiens, UniProt P49146); test: NPY-Y2 antagonist potency, selectivity check, dose response, counter-screen for NPY-Y1 antagonist project, cell-based (AID 1278); assay type: functional
Neuropeptide Y receptor type 2, sequence (P49146 whole entry): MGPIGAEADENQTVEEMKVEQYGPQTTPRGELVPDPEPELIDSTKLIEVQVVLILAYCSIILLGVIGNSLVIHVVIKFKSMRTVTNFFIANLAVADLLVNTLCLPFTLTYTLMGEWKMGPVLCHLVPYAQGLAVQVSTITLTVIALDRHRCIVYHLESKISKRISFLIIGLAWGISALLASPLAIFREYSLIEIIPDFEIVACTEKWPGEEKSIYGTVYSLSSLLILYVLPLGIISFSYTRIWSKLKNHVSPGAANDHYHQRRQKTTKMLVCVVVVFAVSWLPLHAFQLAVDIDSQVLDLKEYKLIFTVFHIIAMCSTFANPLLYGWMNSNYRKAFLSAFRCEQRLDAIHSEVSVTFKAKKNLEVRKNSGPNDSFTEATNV

[15] = molecular target: Neuropeptide Y receptor type 1 (Homo sapiens, UniProt P25929); test: NPY-Y1 receptor antagonist potency, dose response, cell-based (AID 1277); assay type: functional
Neuropeptide Y receptor type 1, sequence (P25929 whole entry): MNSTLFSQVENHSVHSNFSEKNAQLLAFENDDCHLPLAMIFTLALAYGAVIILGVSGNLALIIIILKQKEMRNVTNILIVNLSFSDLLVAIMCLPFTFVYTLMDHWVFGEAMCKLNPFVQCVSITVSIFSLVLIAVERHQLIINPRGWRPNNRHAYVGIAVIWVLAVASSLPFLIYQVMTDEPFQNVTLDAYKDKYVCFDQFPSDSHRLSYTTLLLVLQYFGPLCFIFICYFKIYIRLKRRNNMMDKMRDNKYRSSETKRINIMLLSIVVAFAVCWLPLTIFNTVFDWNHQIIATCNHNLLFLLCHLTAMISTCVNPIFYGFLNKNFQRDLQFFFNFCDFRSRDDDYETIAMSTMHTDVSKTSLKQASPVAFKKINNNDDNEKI

[16] = system: Jurkat; test: antigen receptor-induced NF-kB inhibitors, dose response, Jurkat, luciferase reporter, luminescence, B- and T-cell (AID 489004); assay type: functional, cell-based; conditions: Homo sapiens;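 also: NF-kB luciferase reporter Jurkat cells stimulated with PMA plus ionomycin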
[17] = cytotoxicity in HEK-293T NF-kB-Luc cells, dose response, cytotoxicity control for B/T-cell NF-kB inhibitor project, cell-based, uHTS hits (AID 489019); assay type: functional;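 also: IC50 reflects cytotoxicity as loss of cell viability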
[18] = system: INS1; test: beta cell apoptosis inhibitors, cytokine rescue, dose response, luminescence, retest (AID 449756); assay type: functional, cell-based; conditions: Rattus norvegicus;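 also: cell death triggered by IL-1 beta plus TNF-alpha plus IFN-gamma mixture; protective hits raise ATP signal compared with cytokine alone wells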
[19] = inhibitors of firefly luciferase expression or activity, dose response, H4 neuroglioma cells, luminescence (AID 1990); assay type: functional, cell-based
[20] = Luminescence Cell-Based Dose Response HTS to Identify Inhibitors of 5'UTR Stem-Loop Driven Prion Protein mRNA Translation in H4 Neuroglioblastoma Cells. [Related pubchem assays: 1827 (Project Summary), 1813 (Primary HTS)]; assay type: functional
[21] = inhibitors of SNCA 5'UTR-driven reporter translation, confirmation, H4 neuroglioma cells, luminescence (AID 1988); assay type: functional, cell-based
[22] = system: Escherichia coli; test: microbe, parasite or virus in culture

Beta-galactosidase, sequence (Q8VNN2 whole entry): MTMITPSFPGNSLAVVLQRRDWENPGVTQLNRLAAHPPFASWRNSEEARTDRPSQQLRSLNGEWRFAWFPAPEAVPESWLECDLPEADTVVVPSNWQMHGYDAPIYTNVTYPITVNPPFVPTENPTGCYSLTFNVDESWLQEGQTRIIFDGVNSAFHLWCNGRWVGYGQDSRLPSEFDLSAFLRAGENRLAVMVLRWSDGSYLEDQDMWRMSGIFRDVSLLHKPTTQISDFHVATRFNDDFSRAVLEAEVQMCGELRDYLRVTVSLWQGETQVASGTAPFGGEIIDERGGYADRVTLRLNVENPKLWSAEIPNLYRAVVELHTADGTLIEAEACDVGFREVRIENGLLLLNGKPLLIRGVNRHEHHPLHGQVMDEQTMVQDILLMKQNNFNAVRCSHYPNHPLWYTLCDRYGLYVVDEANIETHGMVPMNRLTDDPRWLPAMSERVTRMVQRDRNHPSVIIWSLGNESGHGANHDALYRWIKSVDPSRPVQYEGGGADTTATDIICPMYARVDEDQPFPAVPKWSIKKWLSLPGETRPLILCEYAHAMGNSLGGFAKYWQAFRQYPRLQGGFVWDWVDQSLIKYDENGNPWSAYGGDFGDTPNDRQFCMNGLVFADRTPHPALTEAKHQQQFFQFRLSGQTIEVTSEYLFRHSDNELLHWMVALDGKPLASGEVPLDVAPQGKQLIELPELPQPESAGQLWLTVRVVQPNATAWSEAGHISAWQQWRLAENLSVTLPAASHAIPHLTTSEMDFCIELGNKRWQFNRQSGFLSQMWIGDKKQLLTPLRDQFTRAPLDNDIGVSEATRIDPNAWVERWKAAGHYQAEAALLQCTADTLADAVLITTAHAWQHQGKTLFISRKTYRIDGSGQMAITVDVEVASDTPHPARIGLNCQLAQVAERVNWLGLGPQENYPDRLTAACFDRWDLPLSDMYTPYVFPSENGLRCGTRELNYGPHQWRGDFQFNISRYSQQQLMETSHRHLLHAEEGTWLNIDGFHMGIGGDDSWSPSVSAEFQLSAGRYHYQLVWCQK

In the case of `O=C1c2ccccc2-c2nnc(-c3ccccc3)cc21`, the EC50 [1] is reported as > 40 µM (inactive), the IC50 [2] is reported as 7.43 µM (active) and the EC50 [3] is reported as > 104 µM (inactive).

With `C[C@@H](CN1CCC2(CC1)C(=O)NCN2c1ccc(F)c(F)c1)NC(=O)c1ccc(F)cc1` the IC50 [4] was 0.104 µM (active) and the IC50 [5] was 0.26 µM (active).

In the case of `O=c1oc(-c2ccc(O)c(O)c2)cc2cc(O)cc(O)c12` [THUNBERGINOL B], the IC50 [6] is reported as 7.57 µM (active), the IC50 [7] is reported as 0.565 µM (active) and the IC50 [8] is reported as 2.17 µM (active). For the same molecule, the IC50 [9] was 19.5 µM (active), the IC50 [10] was > 67.5 µM (inactive) and the IC50 [11] was > 67.5 µM (inactive). For the same molecule, the CC50 [12] was 100 µM (active) and the IC50 [13] was 20.4 µM (active).

For `CCN(CC)S(=O)(=O)c1ccc(Oc2ccc(S(=O)(=O)N(CC)CC)cc2)cc1`, the IC50 [14] was > 35 µM (not active), the IC50 [15] was > 35 µM (not active) and the IC50 [16] was > 80 µM (inactive). The IC50 [17] was > 80 µM (inactive) and the AC50 [18] was 2.23 µM (active).

With `O=C(O)CCCc1nc(-c2ccc(Cl)cc2)no1` the EC50 [19] was 27.1 µM (active), the EC50 [20] was 23.1 µM (active) and the EC50 [21] was 16.2 µM (active). For the same molecule, the AC50 [22] was 39 µM (active).
